From patent US11458205B2, “Genetically encoded intrinsically disordered stealth polymers for delivery and methods of using same” (Duke University, priority 2015, dated 2022)

Test system: MDA-MB-231 human triple negative breast cancer cells
Assay: In vitro cytotoxicity (MTS) of ZiPP-PTX conjugates
Type: cell-based
Settings: MDA-MB-231, 72 hours of drug treatment, concentration in terms of the drug, read-out: IC50 (concentration of the drug that reduced cell viability by 50%)
Protocol: In vitro cytotoxicity of ZiPP-PTX conjugates. In vitro cytotoxicity was done on MDA-MB-231 human triple negative breast cancer cells. 3×10^3 cells were seeded per 100 μL of media in Falcon™ 96-well cell culture plates (BD; Franklin Lakes, N.J.). The cells were allowed to adhere for 16-18 hours before being treated with free PTX and ZiPP-PTX at concentrations that ranged from sub-nanomolar to high-micromolar range. After 72 hours of drug treatment, 20 μL of […] (MTS) reagent (CellTiter 96 AQueous™ Promega; Madison, Wis.) was added to each well and incubated for an additional 2 hours. A dose-response curve for free drug and ZiPP-drug conjugate was constructed by measuring the absorbance of each well at 490 nm with a Victor3 microplate reader (Perkin Elmer; Waltham, Mass.). The 50% inhibitory concentration, IC50, was determined by fitting data to the following equation (Andrew MacKay, J., et al. Nat. Mater. 2009, 8, 993-999):
[formula] where V is viability of cells, Ctreatment is drug concentration, and p is slope of the dose response curve. This IC50 value is used to evaluate the potency of the conjugates.
The in vitro cytotoxicity of Zipp-PTX was measured by looking at the cell viability over a range of concentrations as a function of time. […]

Question: Which IC50 does the source give for `CC(=O)O[C@H]1C(=O)[C@@]2(C)[C@H]([C@H](OC(=O)c3ccccc3)[C@]3(O)C[C@H](OC(=O)[C@H](O)[C@@H](NC(=O)c4ccccc4)c4ccccc4)C(C)=C1C3(C)C)[C@]1(OC(C)=O)CO[C@@H]1C[C@@H]2O` [free drug, Paclitaxel] here?
Answer: Its IC50 is ~2 nM.
